Some test systems named below: MOLT-4; HCT-15; SW-620; RPMI-8226; A498; MCF7; SK-MEL-28; MDA-N; DU-145; TK-10; SK-MEL-2; U-251; KM12; Hs-578T; HOP-62; SN12C; K562; OVCAR-8.
What all share (test): growth of human tumour cells (NCI), 48 h

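Cells were grown in 96-well plates and exposed to each compound for 48 hours at five concentrations; endpoints were interpolated linearly between bracketing concentrations, or set to the highest concentration if not reached. Here, GI50 denotes the concentration required for 50% inhibition of growth.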 Calls of active or inactive are those of the source. No stated cut-off is given here; in the data, active = GI50 up to about 1.1 µM and inactive = higher.

On to `Cc1c(/N=N/c2ccc(Cl)cc2)c(-c2ccccc2)n(C2OC(CO)C(O)C(O)C2O)c(=S)c1C#N` (centres undefined), for which the GI50 in the experiment with MOLT-4 is 8.04 µM (inactive); in the experiment with HCT-15, 17.1 µM; with SW-620, 17.6 µM (inactive); in the experiment with RPMI-8226, 25.2 µM (inactive); in the experiment on A498 it was 7.87 µM (inactive); in the experiment on MCF7, 15.2 µM (inactive). For the same compound, the GI50 in the experiment with SK-MEL-28 is 15.4 µM (inactive); in the experiment on MDA-N it was 18.2 µM (inactive); in the experiment on DU-145, 19 µM (inactive); with TK-10, 21.2 µM (inactive); in the experiment with SK-MEL-2, 18.8 µM (inactive); with U-251, 12.7 µM (inactive). Moreover, the GI50 in the experiment on KM12 was 16.8 µM (inactive); with Hs-578T it was 21.5 µM (inactive); with HOP-62, 19.1 µM (inactive); in the experiment with SN12C it was 16.6 µM (inactive); in the experiment on K562 it was 13.6 µM (inactive).

As for `COC(=O)[C@H](Cc1ccccc1)NC(=O)N1CCN(C(=O)N[C@@H](Cc2ccccc2)C(=O)OC)CCN(C(=O)N[C@@H](Cc2ccccc2)C(=O)OC)CC1`, the GI50 with MOLT-4 was > 100 µM (inactive); with HCT-15, > 100 µM; in the experiment on SW-620 it was > 100 µM (inactive); in the experiment on RPMI-8226 it was > 100 µM (inactive); in the experiment on OVCAR-8, > 100 µM (inactive); with A498, > 100 µM (inactive). The GI50 with MCF7, with SK-MEL-28, in the experiment with MDA-N, in the experiment on DU-145, with TK-10 and in the experiment on SK-MEL-2 was > 100 µM (inactive) in each case. Further, the GI50 with U-251, in the experiment with KM12, in the experiment with Hs-578T, in the experiment on HOP-62, with SN12C and with K562 was > 100 µM (inactive) in each case.

Take `O=C1C[C@@H](Sc2ccccc2)C2(OCCO2)C2ON3CCCC[C@H]3[C@H]12` (some centres undefined): the GI50 in the experiment with MOLT-4 is 0.989 µM (active); with HCT-15, 2.81 µM; in the experiment on SW-620, 3.63 µM (inactive); with RPMI-8226, 3.07 µM (inactive); with OVCAR-8, 3.87 µM (inactive); in the experiment with A498, 30.5 µM (inactive). For the same compound, the GI50 was 6.32 µM (inactive) with MCF7; 19.4 µM (inactive) in the experiment with SK-MEL-28; 13.2 µM (inactive) with MDA-N; 12.1 µM (inactive) in the experiment with DU-145; 6.34 µM (inactive) with TK-10; 18.1 µM (inactive) with SK-MEL-2. The GI50 in the experiment on U-251 is 4.73 µM (inactive); in the experiment with KM12, 4.48 µM (inactive); in the experiment with Hs-578T, 10.8 µM (inactive); in the experiment on HOP-62 it was 16.5 µM (inactive); in the experiment on SN12C, 3.82 µM (inactive); in the experiment with K562, 2.11 µM (inactive).

Regarding `COC(=O)/C=C1/SC(/C(=C(/[O-])OC)[n+]2ccc3ccccc3c2)=NC1=O`, the GI50 in the experiment with MOLT-4, in the experiment with SW-620, in the experiment on RPMI-8226, with OVCAR-8, in the experiment with A498 and with MCF7 was > 100 µM (inactive) throughout. Besides, the GI50 with SK-MEL-28 was > 100 µM (inactive); in the experiment with MDA-N, > 100 µM (inactive); in the experiment with DU-145, > 100 µM (inactive); with SK-MEL-2 it was > 100 µM (inactive); in the experiment with U-251 it was 67.5 µM (inactive); in the experiment with KM12, > 100 µM (inactive). The GI50 in the experiment on Hs-578T was 25.4 µM (inactive); with HOP-62 it was > 100 µM (inactive); in the experiment on SN12C it was > 100 µM (inactive); with K562, > 100 µM (inactive).

Turning to `O=C(Nc1ccccc1)Oc1ccc(C(=S)Nc2ccc(Br)cc2)cc1`, the GI50 in the experiment on MOLT-4 is 13.4 µM (inactive); with HCT-15, 16.2 µM; with SW-620, 24.5 µM (inactive); in the experiment with RPMI-8226, 36.6 µM (inactive); with OVCAR-8 it was 12.6 µM (inactive); with A498 it was 19.1 µM (inactive). Also, the GI50 with MCF7 was 19.1 µM (inactive); in the experiment on SK-MEL-28, 19.4 µM (inactive); in the experiment with MDA-N it was 18.9 µM (inactive); in the experiment with DU-145 it was 31.5 µM (inactive); in the experiment with SK-MEL-2, 18.3 µM (inactive); with U-251, 19.5 µM (inactive). For the same compound, the GI50 in the experiment with KM12 is 12.8 µM (inactive); in the experiment on Hs-578T, 22.9 µM (inactive); with HOP-62 it was 28.6 µM (inactive); in the experiment with K562 it was 21.5 µM (inactive).

As to `COc1ccc2nc(-c3ccccc3)cc(OCC(=O)O)c2c1`, the GI50 was > 100 µM (inactive) with MOLT-4; > 100 µM with HCT-15; > 100 µM (inactive) in the experiment with SW-620; > 100 µM (inactive) with RPMI-8226; > 100 µM (inactive) in the experiment on OVCAR-8; > 100 µM (inactive) in the experiment on A498. The GI50 in the experiment on MCF7, with SK-MEL-28, in the experiment on MDA-N, in the experiment with DU-145, with TK-10 and in the experiment on SK-MEL-2 was > 100 µM (inactive) throughout. Moreover, the GI50 in the experiment on U-251, in the experiment with KM12, in the experiment on Hs-578T, in the experiment with HOP-62, with SN12C and in the experiment with K562 was > 100 µM (inactive) each time.

Consider `COC1(OC)N=C(N)C2(C#N)C(C)=C3NCN(C)N=C3C12C#N` (centres undefined), for which the GI50 in the experiment with HCT-15 is > 100 µM; in the experiment on SW-620, > 100 µM (inactive); in the experiment on RPMI-8226, > 100 µM (inactive); with OVCAR-8, > 100 µM (inactive); with A498, > 100 µM (inactive); in the experiment on MCF7, > 100 µM (inactive). Also, the GI50 in the experiment with SK-MEL-28, with MDA-N, with DU-145, in the experiment on TK-10, with SK-MEL-2 and in the experiment on U-251 was > 100 µM (inactive) each time. Further, the GI50 in the experiment on KM12, in the experiment with Hs-578T, in the experiment with HOP-62, with SN12C and in the experiment on K562 was > 100 µM (inactive) each time.

Consider `C/C(Sc1ccccc1)=C1/CCCN(Cc2ccccc2)C1`, for which the GI50 was 16.7 µM (inactive) with MOLT-4; 14.2 µM with HCT-15; 28.9 µM (inactive) with SW-620; 14.5 µM (inactive) in the experiment on RPMI-8226; 30 µM (inactive) in the experiment with OVCAR-8; 37.8 µM (inactive) in the experiment with A498. Also, the GI50 is 20.2 µM (inactive) in the experiment on MCF7; 23.8 µM (inactive) in the experiment on SK-MEL-28; 22.6 µM (inactive) in the experiment with MDA-N; 47.5 µM (inactive) in the experiment with DU-145; 18.6 µM (inactive) with TK-10; 17.2 µM (inactive) with SK-MEL-2. Also, the GI50 in the experiment on U-251 was 20.5 µM (inactive); in the experiment with KM12 it was 20.1 µM (inactive); in the experiment on Hs-578T it was 16.3 µM (inactive); in the experiment on HOP-62 it was 20.6 µM (inactive); with K562 it was 18 µM (inactive).

Consider `Clc1ccccc1C(c1ccccc1)(c1ccccc1)n1ccnc1` [CLOTRIMAZOLE], for which the GI50 in the experiment with MOLT-4 was 8.95 µM (inactive); with HCT-15, 8.67 µM; with SW-620 it was 12 µM (inactive); with RPMI-8226 it was 6.32 µM (inactive); with OVCAR-8 it was 11 µM (inactive); in the experiment with A498, 20.6 µM (inactive). Besides, the GI50 is 7.33 µM (inactive) in the experiment with MCF7; 16.2 µM (inactive) in the experiment with SK-MEL-28; 11.9 µM (inactive) with MDA-N; 17.3 µM (inactive) in the experiment with DU-145; 15.3 µM (inactive) in the experiment on TK-10; 12.1 µM (inactive) in the experiment with SK-MEL-2. Further, the GI50 was 14.8 µM (inactive) in the experiment with U-251; 11.7 µM (inactive) in the experiment with KM12; 15.1 µM (inactive) in the experiment on Hs-578T; 11.4 µM (inactive) with HOP-62; 5.97 µM (inactive) with K562.

As to `COc1ccc2cc(C(=O)NCCc3ccccc3)ccc2c1OC`, the GI50 in the experiment with MOLT-4 was > 100 µM (inactive); with HCT-15, > 100 µM; in the experiment on SW-620 it was > 100 µM (inactive); with RPMI-8226 it was > 100 µM (inactive); in the experiment with OVCAR-8 it was 79.6 µM (inactive); in the experiment on A498, 37.5 µM (inactive). Further, the GI50 is > 100 µM (inactive) with MCF7; > 100 µM (inactive) in the experiment on SK-MEL-28; > 100 µM (inactive) with MDA-N; > 100 µM (inactive) with DU-145; 71.9 µM (inactive) with SK-MEL-2; 33 µM (inactive) in the experiment with U-251. The GI50 in the experiment with Hs-578T is 56.4 µM (inactive); in the experiment with HOP-62, 32.1 µM (inactive); in the experiment with SN12C it was > 100 µM (inactive); in the experiment with K562, 83.6 µM (inactive).

For the compound `NC(=O)c1nnsc1N/N=C/c1ccc([N+](=O)[O-])cc1`, the GI50 in the experiment on MOLT-4 is > 100 µM (inactive); in the experiment with HCT-15 it was > 100 µM; in the experiment on SW-620, > 100 µM (inactive); with RPMI-8226, > 100 µM (inactive); in the experiment with OVCAR-8 it was > 100 µM (inactive); in the experiment with A498 it was > 100 µM (inactive). For the same compound, the GI50 with MCF7, with SK-MEL-28, in the experiment with MDA-N, in the experiment with DU-145, in the experiment with SK-MEL-2 and in the experiment with U-251 was > 100 µM (inactive) in each case. In addition, the GI50 in the experiment with KM12, in the experiment on Hs-578T, in the experiment with HOP-62, in the experiment with SN12C and in the experiment with K562 was > 100 µM (inactive) each time.

Turning to `C#CCOC(=O)c1ccc(OC(C)=O)cc1`, the GI50 in the experiment on MOLT-4 was > 100 µM (inactive); with HCT-15, > 100 µM; in the experiment with SW-620 it was > 100 µM (inactive); in the experiment on RPMI-8226, > 100 µM (inactive); in the experiment with OVCAR-8, > 100 µM (inactive); with A498, > 100 µM (inactive). The GI50 in the experiment on MCF7, in the experiment on MDA-N, with DU-145, with TK-10, in the experiment with SK-MEL-2 and in the experiment with U-251 was > 100 µM (inactive) in each case. The GI50 in the experiment with KM12, in the experiment with Hs-578T, in the experiment with HOP-62, in the experiment on SN12C and with K562 was > 100 µM (inactive) in each case.

For the origin of these results see ChEMBL document CHEMBL1201862, “PubChem BioAssay data set” (2004).
